Assays:
[1] = test system: patient with Ramsay-Hunt syndrome; experiment: Zolpidem therapy of Ramsay-Hunt syndrome (Example 3); format: in vivo, human
Text: On treatment, the following features improved. […] Also, as part of the syndrome they could not close their left eye. After zolpidem they could.

Parkinson's disease = settings: in vivo; cited from earlier work
[2] = test system: patient who had suffered a stroke; experiment: Clinical observation after zolpidem in a stroke patient (Example 1); format: in vivo, human; settings: 10 mg zolpidem
Text: They had suffered a stroke several years before and presented with left-sided paraplegia since the onset of their stroke. Their cognition was still normal but they had some aphasia and decreased proprioseption that was evident from their inability to use scissors with their right hand. The clinical and neurological features of the patient were unremarkable apart from the above.

[3] = test system: patient after subarachnoid haemorrhage; experiment: Hearing and speech evaluation before and after zolpidem after subarachnoid haemorrhage (Example 4); format: in vivo, human
Description: The patient was then examined for any changes in hearing. […] The patient was also evaluated by the speech therapist before and after zolpidem.

semi-comatose patient = settings: reverts when drug action subsides; cited from earlier work
[4] = test system: patient after subarachnoid haemorrhage; experiment: Brain SPECT before and after zolpidem after subarachnoid haemorrhage (Example 4); format: in vivo, human; settings: 1 hour after 10 mg zolpidem
abnormal baboon = settings: cited from earlier work
[5] = test system: patients with Spinocerebellar Ataxia Type 2; experiment: Clinical response to zolpidem in a family with Spinocerebellar Ataxia Type 2 (Example 2); format: in vivo, human
Text: There is currently no effective pharmacologic treatment for spinocerebellar ataxia. […] Spinocerebellar Ataxia Type 2 was confirmed by molecular analysis.

Cc1ccc(-c2nc3ccc(C)cn3c2CC(=O)N(C)C)cc1 [zolpidem]
closing of left eye ([1]; after zolpidem): they could | drinking fluids ([1]; on zolpidem treatment): able to drink fluids directly from a cup | tonus of facial nerves ([1]; on zolpidem treatment): improved | obsessive-compulsive symptoms (cessation of verbal iterations) (Parkinson's disease): improved | symptoms of PD (akinesia and rigidity) (Parkinson's disease): improved | clinical changes after zolpidem [2]: no marked clinical changes | ability to use scissors ([2]; for the next few hours until drug action subsided): able to use scissors | hearing (pre and post-zolpidem audiograms) ([3]; after 10 mg zolpidem): improved | sleepiness ([3]; after 10 mg zolpidem): slightly sleepy | speech ability ([3]; after 10 mg zolpidem): improved markedly | persistence of hearing and speech improvements ([3]; even after halving the zolpidem dose): remained for the duration of drug action | state of consciousness after drug application (semi-comatose patient): exits their permanent vegetative state | defect in the right parietal aspect of the brain [4]: remained unchanged | brain perfusion (abnormal baboon; brain-abnormal baboon): asymmetric increased perfusion | time to clinical improvement ([5]; 10 mg zolpidem): ≤ 1 h | patients improved clinically ([5]; family of five patients, 10 mg zolpidem): four | ataxia, intention tremor and titubation ([5]; patient P1): improved moderately | ataxia, intention tremor and titubation ([5]; patient P2): improved | ataxia, intention tremor and titubation ([5]; patient P3): improved moderately | clinical improvement ([5]; patient P4): no improvement | ataxia, intention tremor and titubation ([5]; patient P5): slightly improved

CCOC(=O)c1ncn2c1CN(C)C(=O)c1cc(F)ccc1-2 [flumazenil]
effect on zolpidem-induced asymmetric perfusion pattern (abnormal baboon; abnormal baboon): attenuates the influence of zolpidem

CN1C(=O)CN=C(c2ccccc2)c2cc(Cl)ccc21 [diazepam]
state of consciousness after drug application (semi-comatose patient): not awakened
